Test results taken from patent US12522610B2 (priority 2018, dated 2026).
≈ marks a conversion by molar mass, not a printed value. Like-named read-outs stand apart in the source and are kept apart here.

Tests used:
[1] = salt forms; dissolution medium, 55° C. water bath, 60 rpm; Table 4
[2] = physchem; conditions: 55 °C, aqueous with cosolvent or surfactant or cyclodextrin, thermodynamic from solid

Compound	solubility [1] [mg/mL]	solubility [2] [µg/mL]
Buprenorphine acetate-hydrochloride salt	1.716	–
COC12CC[C@@]3(C[C@@H]1[C@](C)(O)C(C)(C)C)C1Cc4ccc(O)c5c4[C@@]3(CCN1CC1CC1)[C@H]2O5 [Buprenorphine free base]	–	1180 (≈ 2510 µM)
